The values below come from patent US20230414571A1, “APPLICATION OF SMALL-MOLECULE COMPOUND IN PREPARATION OF ANTITUMOR DRUG” (SOOCHOW UNIVERSITY, priority 2021, published 2023).

Data set [1] is described as follows: Plasma pharmacokinetics in mice determined by GLMSD. It is filed as in vivo, mouse. Conditions: mouse, in vivo, 40 mg/kg. The procedure:
It can be seen from FIG. 8-1 that the GLMSD platform can specifically acquire the pharmacokinetic data of small-molecule compound 27. Competitive advantages of GLMSD in pharmacokinetic research: (1) a complete drug blood concentration curve of each individual may be tracked; and (2) the total number of mice used in the test is reduced. Since the blood sample consumption of the GLMSD method is low (10 μL of blood per time point), one mouse can be used for completing the entire pharmacokinetic curve (blood sampling at 11 time points within 24 hours, and the minimum interval being 0.25 hour) of a drug.
Based on the advantage that the complete PK curve can be tested by means of the GLMSD, we observe that 3 (#2, #3 and #4) in 8 mice have the characteristic re-absorption peak of this small-molecule inhibitor at the time point of 8 h, and such a characteristic re-absorption peak hardly exists in other 5 mice. This significant phenomenon is related to drug uptake differences between individuals, prompting that compound 27 may re-enter blood circulation by means of a secondary absorption pathway. In the mode of continuous multiple administration (c in FIG. 8-2), pharmacokinetic data of compound 27 (40 mg/kg) was collected from each mouse every day (1, 3, 6, and 8 hours after last administration) for 5 days. For a single dose (a in FIG. 8-2) or a continuous multi-dose (d in FIG. 8-2) administration manner, a limitation of a conventional LC-MS technology lies in obtaining a single data point of pharmacokinetics of a drug by sacrificing one mouse, whereas GLMSD can break through this limitation by providing a complete pharmacokinetic curve based on a single mouse.

In data set [2] the test system is U87 glioma cells. Briefly: Targeted metabonomics analysis of U87 cells. It is filed as cell-based. The procedure:
1×10^7 cells (a sample cell number) were collected, and the cell supernatant was removed by means of centrifugation (1000×g, 1 minute) after quenching with a newly prepared quencher. The cells were resuspended with 100 μL of ultrapure water and mixed well. After 800 μL of cold methanol:acetonitrile (1:1, v/v) was added, the uniformly mixed cell samples were subjected to ultrasonic treatment in an ice bath for 30 minutes. The mixture was stored at −20° C. for 1 h to precipitate the protein. After centrifugation at 4° C. (14000×g, 20 minutes), the supernatant was collected, lyophilized, stored at −80° C., and then analyzed by means of […].
The lyophilized samples were resuspended in a solution (acetonitrile:water, 1:1, v/v, 100 μL) and then centrifuged at 4° C. (14000×g, 10 minutes). The supernatant (100 μL) was collected and diluted with an acetonitrile solution (100 μL), and a […] sample was loaded at 4° C. by using an Agilent 1290 Infinity liquid chromatography (LC) system (Agilent Technologies, Beijing, China) and a 5500 QTRAP mass spectrometer (Toronto of Canada, AB Sciex). At ACQUITY-UPLC-BEH column (1.7 μm, 2.1 mm×150 mm, Waters Technology (Shanghai) Co., Ltd.), chromatographic separation was performed at a flow rate of 300 μL/min, where solvent A (mobile phase) was a 15 mM ammonium acetate aqueous solution, and solvent B was acetonitrile. Chromatographic conditions of gradient elution were reduced from 90% B to 40% B, and were increased sharply from 40% B to 90% B after 18 minutes, a volume ratio of 90% B was kept for 4.9 minutes after 0.1 minute, and the duration of the whole process was 23 minutes. An equal volume of compounds was extracted from 32 actual samples so as to monitor the stability of the system, thereby being used for processing a quality control (QC) sample and put into a real sample. Mass spectrum experiments were performed in a negative ion and multi-reaction monitoring mode, and specific parameters were as follows: a source temperature of 450° C., an atomizer gas (GS1): 45, an auxiliary gas (GS2): 45, a curtain gas (CUR): 30, and an ion space voltage floating (ISVF): −4500 V.
Standard GC-MS data was processed by using analysis software (AB Sciex, Toronto, Canada), which included converting the original mass spectrum data to data containing m/z, measuring the corresponding ion intensity and retention time, and subsequent statistical analysis. Peak testing and calibration of all the samples were compared to their chemical standards (Sigma-Aldrich). […]
Statistical significance was tested by using t. *: P<0.05, **: P<0.01, and ***: P<0.005. […] The hexokinase (HK2 in cancer cells), which is the first one and serves as a rate-limiting enzyme in a glycolysis pathway was evaluated. […]

A word on the AUC(0-t): it is exposure summed from dosing to a finite time, without extrapolation to infinity. Low values mean less exposure, high ones more exposure. As usually defined, the Cmax is the maximum level reached in the sampled fluid or tissue. What is called Tmax is the time at which the peak concentration occurs. By half-life is commonly meant the time in which the quantity being followed falls by half. Take `CCOc1ccc(C(=O)NCCCN(C)CCCN(C)Cc2ccccc2)cc1Br` [compound 27]: in data set [1], the AUC(0-t) was 64400 ng·h/mL, the highest level (Cmax) was 14600 ng/mL, the time of peak concentration (Tmax) was found to be 2 h and the half-life was 4.12 h. In data set [2] (U87 cells after treatment), the “glyceraldehyde-3-phosphate accumulation relative to control group processed by PBS” value is on record as “approximately 3.5 times” and the “increase in concentration of thiamine pyrophosphate (TPP)” value is reported as about 2.5 times. Moreover, the glyceride-3-phosphate change entry in data set [2] (U87 cells after treatment, P<0.005) is “significantly reduced by nearly two orders of magnitude”. Besides, in data set [2] (U87 cells, vs control group processed by PBS), the “concentration of glucose-6-phosphate” value is “lower than that of the control group”.
